Experimental data taken from patent publication US20200325518A1, “Systems and Methods for Metabolic Assessment Utilizing 1-Methoxy-PMS Field” (priority 2019, published 2020).
≈ marks a conversion by molar mass, not a printed value. Where two headings read alike, the source gives them in different places.

Key:
E. coli = experiment: CLSI overnight reference method MIC of antimicrobials against E. coli strains; type: cell-based; details: for MIC (CLSI Ref): unit assumed
P. aeruginosa = experiment: Rapid AST by surface binding of europium probe with time resolved fluorescence; type: cell-based; details: Pseudomonas aeruginosa
Experimental: The x-axis of each graph denotes the concentrations of antimicrobial Amikacin (AMK) in micrograms/milliliter, and the y-axis denotes fluorescence from binding to bacteria surface. Growth check data measured by optical density (Absorbance at 600 nm) of the bacterial culture is denoted for each strain.
AST was performed by surface binding of probe followed by time resolved fluorescence. The P aeruginosa strains were incubated at 35° C. in shaking conditions for 4 hours for attaining growth, and growth check was performed by measuring absorbance of the culture at 600 nm after 4 hours of growth.

[1] = E. coli strain Clinical Sample 1
[2] = E. coli strain Clinical Sample 2
[3] = E. coli strain Clinical Sample 4
[4] = E. coli strain Clinical Sample 5
[5] = E. coli strain Clinical Sample 6
[6] = E. coli strain Clinical Sample 7
[7] = E. coli strain Clinical Sample 8
[8] = E. coli strain Clinical Sample 9
[9] = E. coli strain Clinical Sample 10
[10] = E. coli strain Clinical Sample 11
[11] = E. coli strain Clinical Sample 12
[12] = E. coli strain Clinical Sample 13

| Compound | MIC (CLSI Ref) (E. coli; E. coli strain BEI 4.097) | MIC (CLSI Ref) (E. coli; E. coli strain CDC Carba36) | MIC (CLSI Ref) (E. coli; [1]) | MIC (CLSI Ref) (E. coli; [2]) | MIC (CLSI Ref) (E. coli; [3]) | MIC (CLSI Ref) (E. coli; [4]) | MIC (CLSI Ref) (E. coli; [5]) | MIC (CLSI Ref) (E. coli; [6]) | MIC (CLSI Ref) (E. coli; [7]) | MIC (CLSI Ref) (E. coli; [8]) | MIC (CLSI Ref) (E. coli; [9]) | MIC (CLSI Ref) (E. coli; [10]) | MIC (CLSI Ref) (E. coli; [11]) | MIC (CLSI Ref) (E. coli; [12]) | CLSI breakpoint interpretation (E. coli; [2]) | MIC (P. aeruginosa; P. aeruginosa Strain 1, growth check value 2.18, 4 hours growth, read-out: MIC) | MIC (P. aeruginosa; P. aeruginosa Strain 2, growth checkpoint value 1.13, no reliable MIC data obtained, read-out: MIC expected) |
| --- | --- | --- | --- | --- | --- | --- | --- | --- | --- | --- | --- | --- | --- | --- | --- | --- | --- |
| C[C@H]1COc2c(N3CCN(C)CC3)c(F)cc3c(=O)c(C(=O)O)cn1c23 [LVX, Levofloxacin] | < 0.06 µg/mL | > 8 µg/mL | < 0.06 µg/mL | < 0.06 µg/mL | > 8 µg/mL | > 8 µg/mL | < 0.06 µg/mL | < 0.06 µg/mL | < 0.06 µg/mL | > 8 µg/mL | 8 µg/mL | < 0.06 µg/mL | 0.5 µg/mL | < 0.06 µg/mL | – | – | – |
| CO/N=C(\C(=O)N[C@@H]1C(=O)N2C(C(=O)O)=C(CSc3nc(=O)c(=O)[nH]n3C)CS[C@H]12)c1csc(N)n1 [CRO, Ceftriaxone] | < 0.12 µg/mL | 1 µg/mL | < 0.12 µg/mL | 2 µg/mL | < 0.12 µg/mL | < 0.12 µg/mL | < 0.12 µg/mL | < 0.12 µg/mL | 64 µg/mL | > 64 µg/mL | < 0.12 µg/mL | < 0.12 µg/mL | < 0.12 µg/mL | < 0.12 µg/mL | I | – | – |
| NC[C@H]1O[C@H](O[C@H]2[C@H](O)[C@@H](O[C@H]3O[C@H](CO)[C@@H](O)[C@H](N)[C@H]3O)[C@H](N)C[C@@H]2N)[C@H](N)C[C@@H]1O [TOB, Tobramycin] | 1 µg/mL | 1 µg/mL | 2 µg/mL | 1 µg/mL | 1 µg/mL | 1 µg/mL | 1 µg/mL | 1 µg/mL | 2 µg/mL | 4 µg/mL | 16 µg/mL | 1 µg/mL | 1 µg/mL | 1 µg/mL | – | – | – |
| Penicillin | 16 µg/mL | > 16 µg/mL | > 16 µg/mL | > 16 µg/mL | > 16 µg/mL | > 16 µg/mL | 16 µg/mL | > 16 µg/mL | > 16 µg/mL | > 16 µg/mL | > 16 µg/mL | > 16 µg/mL | > 16 µg/mL | 16 µg/mL | – | – | – |
| CN(C)[C@@H]1C(=O)C(C(N)=O)=C(O)[C@@]2(O)C(=O)C3=C(O)c4c(O)cccc4[C@@](C)(O)[C@H]3C[C@@H]12 [TET, Tetracycline] | 32 µg/mL | 8 µg/mL | 4 µg/mL | > 32 µg/mL | 4 µg/mL | > 32 µg/mL | 2 µg/mL | 4 µg/mL | 8 µg/mL | 4 µg/mL | 4 µg/mL | 4 µg/mL | 4 µg/mL | 4 µg/mL | R | – | – |
| C[C@@H](O)[C@H]1C(=O)N2C(C(=O)O)=C(S[C@@H]3CN[C@H](C(=O)Nc4cccc(C(=O)O)c4)C3)[C@H](C)[C@H]12 [ERT, Ertapenem] | 0.008 µg/mL | 0.12 µg/mL | 0.008 µg/mL | 0.015 µg/mL | 0.008 µg/mL | 0.008 µg/mL | 0.008 µg/mL | 0.008 µg/mL | 0.25 µg/mL | 0.12 µg/mL | 0.008 µg/mL | 0.008 µg/mL | 0.008 µg/mL | 0.016 µg/mL | – | – | – |
| Gentamycin | 0.5 µg/mL | 2 µg/mL | 0.5 µg/mL | 4 µg/mL | 0.5 µg/mL | 2 µg/mL | 0.5 µg/mL | 0.5 µg/mL | 1 µg/mL | 1 µg/mL | > 16 µg/mL | 2 µg/mL | 1 µg/mL | 1 µg/mL | – | – | – |
| Piperacillin/tazobactam [TZP] | 4 µg/mL | 128 µg/mL | 4 µg/mL | 8 µg/mL | 4 µg/mL | 4 µg/mL | 2 µg/mL | 4 µg/mL | 32 µg/mL | > 128 µg/mL | 2 µg/mL | 2 µg/mL | 2 µg/mL | 32 µg/mL | – | – | – |
| Trimethoprim-Sulfamethoxazole [SXT] | < 0.5 µg/mL | < 0.5 µg/mL | < 0.5 µg/mL | 4 µg/mL | > 32 µg/mL | > 32 µg/mL | 2 µg/mL | > 32 µg/mL | < 0.5 µg/mL | > 32 µg/mL | > 32 µg/mL | < 0.5 µg/mL | < 0.5 µg/mL | < 0.5 µg/mL | R | – | – |
| Ampicillin/sulbactam [SAM] | 8 µg/mL | > 32 µg/mL | 4 µg/mL | 16 µg/mL | 16 µg/mL | 8 µg/mL | 2 µg/mL | 16 µg/mL | 64 µg/mL | 32 µg/mL | 16 µg/mL | 4 µg/mL | 2 µg/mL | > 32 µg/mL | I | – | – |
| CC(C)(O/N=C(\C(=O)N[C@@H]1C(=O)N2C(C(=O)[O-])=C(C[n+]3ccccc3)CS[C@H]12)c1csc(N)n1)C(=O)O [CAZ, Ceftazidime] | 0.25 µg/mL | 4 µg/mL | 0.25 µg/mL | 2 µg/mL | 0.25 µg/mL | 0.25 µg/mL | 0.12 µg/mL | 0.25 µg/mL | > 32 µg/mL | > 32 µg/mL | 0.12 µg/mL | 0.25 µg/mL | 0.12 µg/mL | 0.12 µg/mL | – | – | – |
| C[C@@H](O)[C@H]1C(=O)N2C(C(=O)O)=C(SCCN=CN)C[C@H]12 [IPM, Imipinem] | < 0.12 µg/mL | < 0.12 µg/mL | < 0.12 µg/mL | < 0.12 µg/mL | 0.25 µg/mL | < 0.12 µg/mL | < 0.12 µg/mL | < 0.12 µg/mL | 0.5 µg/mL | < 0.12 µg/mL | < 0.12 µg/mL | 0.25 µg/mL | < 0.12 µg/mL | < 0.12 µg/mL | – | – | – |
| C[C@H]1[C@H](NC(=O)/C(=N\OC(C)(C)C(=O)O)c2csc(N)n2)C(=O)N1S(=O)(=O)O [ATM, Aztreonam] | < 0.25 µg/mL | 8 µg/mL | < 0.25 µg/mL | 0.5 µg/mL | < 0.25 µg/mL | < 0.25 µg/mL | < 0.25 µg/mL | < 0.25 µg/mL | 64 µg/mL | 32 µg/mL | < 0.25 µg/mL | < 0.25 µg/mL | < 0.25 µg/mL | < 0.25 µg/mL | – | – | – |
| Colistin [CST] | 0.12 µg/mL | 0.25 µg/mL | 0.12 µg/mL | 0.12 µg/mL | 0.25 µg/mL | 0.25 µg/mL | 0.12 µg/mL | 0.12 µg/mL | 0.12 µg/mL | 0.5 µg/mL | 0.25 µg/mL | 0.5 µg/mL | 0.25 µg/mL | 0.25 µg/mL | – | – | – |
| NCC[C@H](O)C(=O)N[C@@H]1C[C@H](N)[C@@H](O[C@H]2O[C@H](CN)[C@@H](O)[C@H](O)[C@H]2O)[C@H](O)[C@H]1O[C@H]1O[C@H](CO)[C@@H](O)[C@H](N)[C@H]1O [AMK, Amikacin] | 4 µg/mL | 4 µg/mL | 4 µg/mL | 4 µg/mL | 4 µg/mL | 4 µg/mL | 4 µg/mL | 2 µg/mL | 4 µg/mL | 4 µg/mL | 8 µg/mL | 4 µg/mL | 4 µg/mL | 4 µg/mL | – | 8 µg/mL (≈ 13.7 µM) | 8 µg/mL (≈ 13.7 µM) |
| C[C@@H](O)[C@H]1C(=O)N2C(C(=O)O)=C(S[C@@H]3CN[C@H](C(=O)N(C)C)C3)[C@H](C)[C@H]12 [MEM, Meropenem] | < 0.06 µg/mL | < 0.06 µg/mL | < 0.06 µg/mL | < 0.06 µg/mL | < 0.06 µg/mL | < 0.06 µg/mL | < 0.06 µg/mL | < 0.06 µg/mL | < 0.06 µg/mL | < 0.06 µg/mL | < 0.06 µg/mL | < 0.06 µg/mL | < 0.06 µg/mL | < 0.06 µg/mL | – | – | – |
| CC1(C)S[C@@H]2[C@H](NC(=O)[C@H](N)c3ccccc3)C(=O)N2[C@H]1C(=O)O [AMP, Ampicillin] | 4 µg/mL | > 32 µg/mL | 4 µg/mL | > 32 µg/mL | > 32 µg/mL | > 32 µg/mL | 4 µg/mL | > 32 µg/mL | > 32 µg/mL | > 32 µg/mL | > 32 µg/mL | 4 µg/mL | 4 µg/mL | > 32 µg/mL | – | – | – |
